In US20130184272A1, “DIABETES THERAPEUTIC AGENT” (TAKEDA PHARMACEUTICAL COMPANY LIMITED, priority 2010, published 2013):

Assays:
C2C12 cell = test: Sugar metabolism promoting activity in muscle cell (lactic acid production); format: cell-based, Mouse; details: compound 1 μM, 2 days, C2C12 myotubes, without drug = 100%; for activity at 1 µM: Mus musculus, 48 h, read-out: lactic acid production promoting action (%)
Experimental: • (1) In the same manner as in Example 1, C2C12 cell was cultured in a growth medium. After reaching subconfluence of not less than 90%, the medium was exchanged with a differentiation medium and the cells were cultured for about 7 days while exchanging the medium every 2 or 3 days until the cells differentiated to form a myotube. • (2) After confirmation of myotube formation under a microscope, the test compound (1 μM) was added to a differentiation medium and cultured for 2 days. The cells were washed with Krebs-Ringer HEPES phosphate buffer (10 mM HEPES, pH 7.4, 131 mM NaCl, 4.7 mM KCl, 2.5 mM CaCl2—2H2O, 1.2 mM MgSO4—7H2O, 1.2 mM KH2PO4), the medium was exchanged with Krebs-Ringer HEPES phosphate buffer added with 5 mM glucose, 0.2% fatty acid-free bovine serum albumin, and cultured at 37° C. for 4 hr. • (3) The lactic acid concentration of the culture supernatant was measured using Detarminer LA kit (Kyowa Medex Co., Ltd.).
The numerical values in Table 2 show the concentration of the compound addition group with the concentration of lactic acid without addition of a drug as 100%.

[1] = test system: Mouse-derived myoblast line C2C12 cell; test: Cell differentiation promoting activity in myoblast (creatine kinase activity); format: cell-based; details: 2 days, without compound = 100%; for activity at 1 µM / activity at 0.01 µM / activity at 10 µM: Mus musculus, C2C12, 48 h, read-out: creatine kinase activating action (%); for activity at 0.01 µM: compound at 0.01 μM (**); for activity at 10 µM: compound at 10 μM (*)
Experimental: • (1) Mouse-derived myoblast line C2C12 cell (Dainippon Pharmaceutical Co., Ltd.) was subcultured in a high glucose Eagle's modified Dulbecco's medium (GIBCO) added with 10% calf fetal bovine serum (GIBCO), 100 unit/mL penicillin and 100 μg/mL streptomycin (hereinafter to be referred to as a growth medium), plated at 5000 cells/cm^2 and cultured at 37° C., under 5% CO2. • (2) When the cells reached subconfluence of not less than 90%, the medium was exchanged with high glucose Eagle's modified Dulbecco's medium (GIBCO) added with (i) 2% horse serum (GIBCO) and (ii) penicillin, streptomycin and a test compound (hereinafter to be referred to as a differentiation medium) and the cells were cultured for 2 days. To the control group was added DMSO solution instead of the test compound. • (3) The cells were washed with PBS, 0.5% NP-40 solution was added, and the cells were lysed by freeze-thawing. The cell extract was centrifuged and the creatine kinase activity in the supernatant was measured as an index of muscle differentiation. The creatine kinase activity was measured using CPKII Test Wako (Wako Pure Chemical Industries, Ltd.) according to the manual of the kit.
The numerical values in Table 1 show creatine kinase activity of the compound addition group when the creatine kinase activity without addition of the compound is 100%, and * means measurement with addition of the compound at 10 μM, ** at 0.01 μM, and others at 1 μM.

## CCCOc1sc(C(N)=O)c2c1-c1c(cnn1C)CC2 [Ref. Ex. 3, 1-methyl-8-propoxy-4,5-dihydro-1H-thieno[3,4-g]indazole-6-carboxamide]
C2C12 cell
  activity at 1 µM: 170%
[1]; compound at 1 μM
  activity at 1 µM: 179%

## COCCOc1sc(C(N)=O)c2c1-c1c(cnn1C)CC2 [Ref. Ex. 4, 8-(2-methoxyethoxy)-1-methyl-4,5-dihydro-1H-thieno[3,4-g]indazole-6-carboxamide]
C2C12 cell
  activity at 1 µM: 239%
[1]; compound at 1 μM
  activity at 1 µM: 138%

## Cn1ncc2c1-c1c(OCc3ccncc3)sc(C(N)=O)c1CC2 [Ref. Ex. 5, 1-methyl-8-(pyridin-4-ylmethoxy)-4,5-dihydro-1H-thieno[3,4-g]indazole-6-carboxamide]
C2C12 cell
  activity at 1 µM: 124%
[1]; compound at 1 μM
  activity at 1 µM: 113%

## CNC(=O)c1sc(Oc2ccccc2)c2c1CCc1cnn(C)c1-2 [Ref. Ex. 6, N,1-dimethyl-8-phenoxy-4,5-dihydro-1H-thieno[3,4-g]indazole-6-carboxamide]
C2C12 cell
  activity at 1 µM: 187%
[1]; compound at 1 μM
  activity at 1 µM: 164%

## Cn1ncc2c1-c1c(Oc3ccc(OCc4ccc5ccccc5n4)cc3)sc(C(N)=O)c1CC2 [Ref. Ex. 10, 1-methyl-8-[4-(quinolin-2-ylmethoxy)phenoxy]-4,5-dihydro-1H-thieno[3,4-g]indazole-6-carboxamide]
C2C12 cell
  activity at 1 µM: 259%
[1]
  activity at 0.01 µM: 193%

## CCCSc1sc(C(N)=O)c2c1-c1c(cnn1C)CC2 [Ref. Ex. 11, 1-methyl-8-(propylsulfanyl)-4,5-dihydro-1H-thieno[3,4-g]indazole-6-carboxamide]
C2C12 cell
  activity at 1 µM: 239%
[1]; compound at 1 μM
  activity at 1 µM: 198%

## Cn1ncc2c1-c1c(Nc3ccccc3)sc(C(N)=O)c1CC2 [Ref. Ex. 12, 1-methyl-8-(phenylamino)-4,5-dihydro-1H-thieno[3,4-g]indazole-6-carboxamide]
[1]
  activity at 10 µM: 162%

## CCCS(=O)(=O)c1sc(C(N)=O)c2c1-c1c(cnn1C)CC2 [Ref. Ex. 13, 1-methyl-8-(propylsulfonyl)-4,5-dihydro-1H-thieno[3,4-g]indazole-6-carboxamide]
C2C12 cell
  activity at 1 µM: 154%
[1]
  activity at 10 µM: 128%

## CCCCc1sc(C(N)=O)c2c1-c1c(cnn1C)CC2 [Ref. Ex. 14, 8-butyl-1-methyl-4,5-dihydro-1H-thieno[3,4-g]indazole-6-carboxamide]
C2C12 cell
  activity at 1 µM: 265%
[1]; compound at 1 μM
  activity at 1 µM: 151%

## Cn1ncc2c1-c1c(Cc3ccccc3)sc(C(N)=O)c1CC2 [Ref. Ex. 16, 8-benzyl-1-methyl-4,5-dihydro-1H-thieno[3,4-g]indazole-6-carboxamide]
C2C12 cell
  activity at 1 µM: 194%
[1]
  activity at 0.01 µM: 150%

## Cn1ncc2c1-c1c(OC3CCCC3)sc(C(N)=O)c1CC2 [Ref. Ex. 17, 8-(cyclopentyloxy)-1-methyl-4,5-dihydro-1H-thieno[3,4-g]indazole-6-carboxamide]
C2C12 cell
  activity at 1 µM: 141%
[1]; compound at 1 μM
  activity at 1 µM: 177%

## Cn1ncc2c1-c1c(Oc3ccc4ncccc4c3)sc(C(N)=O)c1CC2 [Ref. Ex. 18, 1-methyl-8-(quinolin-6-yloxy)-4,5-dihydro-1H-thieno[3,4-g]indazole-6-carboxamide]
C2C12 cell
  activity at 1 µM: 220%
[1]
  activity at 0.01 µM: 160%

## Cn1ncc2c1-c1c(Oc3ccc(S(C)(=O)=O)cc3)sc(C(N)=O)c1CC2 [Ref. Ex. 19, 1-methyl-8-[4-(methylsulfonyl)phenoxy]-4,5-dihydro-1H-thieno[3,4-g]indazole-6-carboxamide]
C2C12 cell
  activity at 1 µM: 209%
[1]; compound at 1 μM
  activity at 1 µM: 183%

## NC(=O)c1sc(Oc2ccccc2)c2c1CCc1cn[nH]c1-2 [Ref. Ex. 20, 8-phenoxy-4,5-dihydro-1H-thieno[3,4-g]indazole-6-carboxamide]
C2C12 cell
  activity at 1 µM: 167%
[1]; compound at 1 μM
  activity at 1 µM: 121%

## COc1cccc(Oc2sc(C(N)=O)c3c2-c2c(cnn2C)CC3)c1 [Ref. Ex. 21, 8-(3-methoxyphenoxy)-1-methyl-4,5-dihydro-1H-thieno[3,4-g]indazole-6-carboxamide]
C2C12 cell
  activity at 1 µM: 184%
[1]
  activity at 0.01 µM: 198%

## Cn1ncc2c1-c1c(Oc3ccc(OCc4ccncc4)cc3)sc(C(N)=O)c1CC2 [Ref. Ex. 23, 1-methyl-8-[4-(pyridin-4-ylmethoxy)phenoxy]-4,5-dihydro-1H-thieno[3,4-g]indazole-6-carboxamide]
C2C12 cell
  activity at 1 µM: 252%
[1]
  activity at 0.01 µM: 191%

## Cn1ncc2c1-c1c(Oc3ccc(CC(=O)O)cc3)sc(C(N)=O)c1CC2 [Ref. Ex. 24, {4-[(6-carbamoyl-1-methyl-4,5-dihydro-1H-thieno[3,4-g]indazol-8-yl)oxy]phenyl}acetic acid]
C2C12 cell
  activity at 1 µM: 126%
[1]; compound at 1 μM
  activity at 1 µM: 142%

## Cn1ncc2c1-c1c(Oc3ccc(C[C@H](N)C(=O)N4CCOCC4)cc3)sc(C(N)=O)c1CC2 [Ref. Ex. 25, 8-{4-[(2S)-2-amino-3-morpholin-4-yl-3-oxopropyl]phenoxy}-1-methyl-4,5-dihydro-1H-thieno[3,4-g]indazole-6-carboxamide]
C2C12 cell
  activity at 1 µM: 235%
[1]; compound at 1 μM
  activity at 1 µM: 180%

## CN(C)c1cccc(Oc2sc(C(N)=O)c3c2-c2c(cnn2C)CC3)c1 [Ref. Ex. 26, 8-[3-(dimethylamino)phenoxy]-1-methyl-4,5-dihydro-1H-thieno[3,4-g]indazole-6-carboxamide]
C2C12 cell
  activity at 1 µM: 175%
[1]; compound at 1 μM
  activity at 1 µM: 156%

## Cn1ncc2c1-c1c(Oc3ccc(OCc4ccccn4)cc3)sc(C(N)=O)c1CC2 [Ref. Ex. 27, 1-methyl-8-[4-(pyridin-2-ylmethoxy)phenoxy]-4,5-dihydro-1H-thieno[3,4-g]indazole-6-carboxamide]
C2C12 cell
  activity at 1 µM: 198%
[1]
  activity at 0.01 µM: 163%

## Cn1ncc2c1-c1c(Oc3ccc4c(c3)OCO4)sc(C(=O)NCc3ccncc3)c1CC2 [Ref. Ex. 28, 8-(1,3-benzodioxol-5-yloxy)-1-methyl-N-(pyridin-4-ylmethyl)-4,5-dihydro-1H-thieno[3,4-g]indazole-6-carboxamide]
C2C12 cell
  activity at 1 µM: 170%
[1]; compound at 1 μM
  activity at 1 µM: 186%

## Cn1ncc2c1-c1c(Oc3ccc4c(c3)OCO4)sc(C(N)=O)c1CC2(C)C [Ref. Ex. 29, 8-(1,3-benzodioxol-5-yloxy)-1,4,4-trimethyl-4,5-dihydro-1H-thieno[3,4-g]indazole-6-carboxamide]
C2C12 cell
  activity at 1 µM: 264%
[1]; compound at 1 μM
  activity at 1 µM: 183%

## Cn1ncc2c1-c1c(Oc3cnc4ccccc4c3)sc(C(N)=O)c1CC2 [Ref. Ex. 30, 1-methyl-8-(quinolin-3-yloxy)-4,5-dihydro-1H-thieno[3,4-g]indazole-6-carboxamide]
C2C12 cell
  activity at 1 µM: 260%
[1]
  activity at 0.01 µM: 166%

## Cc1ccc(Oc2sc(C(N)=O)c3c2-c2c(cnn2C)CC3)cn1 [Ref. Ex. 31, 1-methyl-8-[(6-methylpyridin-3-yl)oxy]-4,5-dihydro-1H-thieno[3,4-g]indazole-6-carboxamide]
C2C12 cell
  activity at 1 µM: 253%
[1]
  activity at 0.01 µM: 150%

## Cn1ncc2c1-c1c(Oc3cccnc3N)sc(C(N)=O)c1CC2 [Ref. Ex. 32, 8-[(2-aminopyridin-3-yl)oxy]-1-methyl-4,5-dihydro-1H-thieno[3,4-g]indazole-6-carboxamide]
C2C12 cell
  activity at 1 µM: 295%
[1]; compound at 1 μM
  activity at 1 µM: 101%

## Cn1ncc2c1-c1c(Oc3ccc[n+]([O-])c3)sc(C(N)=O)c1CC2 [Ref. Ex. 33, 1-methyl-8-[(1-oxidepyridin-3-yl)oxy]-4,5-dihydro-1H-thieno[3,4-g]indazole-6-carboxamide]
C2C12 cell
  lactic acid production promoting action (%): 155%
[1]; compound at 1 μM
  creatine kinase activating action (%): 156%

## COc1ncccc1Oc1sc(C(N)=O)c2c1-c1c(cnn1C)CC2 [Ref. Ex. 34, 8-[(2-methoxypyridin-3-yl)oxy]-1-methyl-4,5-dihydro-1H-thieno[3,4-g]indazole-6-carboxamide]
C2C12 cell
  activity at 1 µM: 249%
[1]; compound at 1 μM
  activity at 1 µM: 164%

## COc1ccc(Oc2sc(C(N)=O)c3c2-c2c(cnn2C)CC3)cn1 [Ref. Ex. 35, 8-[(6-methoxypyridin-3-yl)oxy]-1-methyl-4,5-dihydro-1H-thieno[3,4-g]indazole-6-carboxamide]
C2C12 cell
  activity at 1 µM: 228%
[1]
  activity at 0.01 µM: 192%

## CN(C)c1sc(C(N)=O)c2c1-c1c(cnn1C)CC2 [Ref. Ex. 36, 8-(dimethylamino)-1-methyl-4,5-dihydro-1H-thieno[3,4-g]indazole-6-carboxamide]
C2C12 cell
  activity at 1 µM: 211%
[1]; compound at 1 μM
  activity at 1 µM: 139%
